# From the OPERA property sets (Mansouri et al. 2018)
# Settings: for log10 biotransformation half-life (days) / log10 BCF: fish
SMILES,melting point [°C],boiling point [°C],also measured
COc1nc(NC(C)C)nc(NC(C)C)n1,91.5,,log10 Koc (L/kg): 2.6; log10 vapour pressure (mmHg): -5.64
C[C@H]1CC[C@@H]2[C@@H](C)[C@H]3[C@H](C[C@H]4[C@@H]5CC=C6C[C@@H](O)CC[C@]6(C)[C@H]5CC[C@]34C)N2C1,218,,
N#CC=Cc1ccco1,38,,
CCOc1cccc2ccccc12,5.5,280,
Nc1ccc(S(=O)c2ccc(N)cc2)cc1,175,,
O=Cc1ccnc2ccccc12,51,,
O=C1[C@@H]2C[C@H](CN3CCCC[C@@H]23)[C@H]2CCCCN12,111,,
Clc1ccc2ccc(Cl)nc2c1,120,,
COC(=O)[C@@H](C)N(C(=O)c1ccccc1)c1ccc(F)c(Cl)c1,,,log10 vapour pressure (mmHg): -5.12
COc1ccccc1,-37.5,154,log10 Koa: 4.01; log10 Koc (L/kg): 1.54; log10 vapour pressure (mmHg): 0.549; ready biodegradability: readily biodegradable
Nc1ncnc(Nc2ccccc2)n1,236,,
Clc1ccccc1Oc1ccccc1,,,log10 vapour pressure (mmHg): -2.4
Clc1cc(Cl)c(-c2c(Cl)c(Cl)c(Cl)c(Cl)c2Cl)c(Cl)c1Cl,,,log10 biotransformation half-life (days): 2.66
O=C1CCC1,-50.9,99,log10 vapour pressure (mmHg): 1.63
Cc1ccc(S(=O)c2ccc(C)cc2)cc1,95,,
Cc1ccc(Nc2ccc(Nc3ccc(C)cc3)c3c2C(=O)c2ccccc2C3=O)cc1,218,,
CCCCOC(=O)c1ccc(N)cc1,58,,
Nc1ccc2cc3ccccc3cc2c1,239,,log10 Koc (L/kg): 4.45
[N-]=[N+]=NC(=O)c1ccccc1,32,,
CC(=O)c1ccc(OCC(=O)O)cc1,176,,
O=C(O)CCCl,41,156,
C=CCSC,,92,
C=C(C)C(=O)OCC(F)(F)C(F)F,,124,
BrC=CBr,-37.5,110,log10 Koc (L/kg): 1.65; log10 vapour pressure (mmHg): 1.49; ready biodegradability: not readily biodegradable
C=CCN=C=S,-80,152,log10 vapour pressure (mmHg): 0.568

SMILES,melting point [°C],boiling point [°C],also measured
CCCCCCCCCCCCCCCC/C=C/C1CC(=O)OC1=O (configuration not stated),,,ready biodegradability: not readily biodegradable
O=C(O)c1ccc(CBr)cc1,230,,
C/C=C(\C)C=O,,117,
CCCc1ccc(C(=O)O)cc1,143,,
CCc1ccccc1OC,,187,
COC(=O)CCCCC(=O)O,9,,
CC(C)C1CC1,-113,58.3,
Cc1c[nH]c(C)c1,,168,
Cc1cn([C@H]2C[C@H](O)[C@@H](CO)O2)c(=O)[nH]c1=O,186,,
COC(=O)CC(O)(CC(=O)OC)C(=O)OC,79.3,285,
CC1CCCC(C)(C)C1=O (configuration not stated),-31.8,178,
C1CCCCC1,6.6,80.7,log10 Henry constant (atm·m³/mol): -0.824; log10 Koa: 2.74; log10 biodegradation half-life (days): 1.7; log10 vapour pressure (mmHg): 1.99; ready biodegradability: not readily biodegradable; log10 BCF: 1.92; log10 biotransformation half-life (days): -0.66
O=[N+]([O-])c1ccccc1/C=C/c1ccccc1,73,,
CCCCN(CCCC)C(=O)COC(=O)c1ccccc1,25,,
O=C(c1ccccc1)C1CCCCC1,56,,
CC[N+](C)(C)CCOC(=O)C(O)(c1ccccc1)c1ccccc1.[Cl-],213,,
[Na][O]c1c(Cl)c(Cl)c(Cl)c(Cl)c1Cl,,,log10 BCF: 2.78
O=S1(=O)OCC2C(CO1)C1(Cl)C(Cl)=C(Cl)C2(Cl)C1(Cl)Cl (configuration not stated),182,,log10 vapour pressure (mmHg): -6.55
Clc1ccc(Cl)c(-c2c(Cl)cccc2Cl)c1,,,log10 Koa: 8.45; log10 vapour pressure (mmHg): -4.65
CC=C(Cl)C=O,,148,
Cc1ccc(N=Cc2ccccc2)cc1,35,318,
Cc1ccc2ccccc2c1N,32,,
Cc1ccsc1C,-49,142,
COCCCNc1nc(NC(C)C)nc(SC)n1,,,log10 vapour pressure (mmHg): -6.55
CCCCCCCCCCI,-16.3,,log10 vapour pressure (mmHg): -1.85

SMILES,melting point [°C],boiling point [°C],also measured
Cn1c(=O)c2c(ncn2CCOC(=O)c2cccnc2)n(C)c1=O,152,,
O=[N+]([O-])c1cc(Cl)cc(Cl)c1O,122,,ready biodegradability: not readily biodegradable; log10 BCF: 1.32
CCc1nc2ccccc2[nH]1,175,,
FC(F)(Cl)C(F)(F)Cl,-94,3.8,log10 vapour pressure (mmHg): 3.3
COc1ccccc1Cl,-26.8,198,log10 vapour pressure (mmHg): -0.623
CCCCC(=O)CC,-39,147,log10 vapour pressure (mmHg): 0.415
CCn1cc(C(=O)O)c(=O)c2cc(F)c(N3CCNCC3)nc21,222,,
O=c1c(O)c(-c2ccc(O)c(O)c2)oc2cc(O[C@@H]3O[C@H](CO)[C@@H](O)[C@H](O)[C@H]3O)cc(O)c12,248,,
Oc1c(Br)c(Br)c(O)c(Br)c1Br,244,,
Clc1cc2c(cc1Cl)Oc1cc(Br)c(Br)cc1O2,316,,log10 vapour pressure (mmHg): -8.33
CCCC1CCNCC1,,173,
CCC(CC)C(=O)Cl,,140,
CCOP(=S)(OCC)OP(=S)(OCC)OCC,,,log10 vapour pressure (mmHg): -3.98
Cc1ccc2nccnc2c1,218,249,
C1CCSCC1,19,142,log10 vapour pressure (mmHg): 0.895
C=C[C@@]1(C)C=C2CC[C@@H]3[C@](C)(CCC[C@@]3(C)C(=O)O)[C@H]2CC1,218,,log10 BCF: 1.92
CC=C(C)Br,,99.8,
CCN(CC)CCOc1ccc2nc(N(C)C)sc2c1.Cl.Cl,242,,
COc1cc2c(cc1OC)C(CCc1ccc(Cl)cc1)N(C)CC2 (configuration not stated),110,,
COCC(C)Cl (configuration not stated),,99,
C=CCc1ccc(O)c(OC)c1,-9.1,253,log10 vapour pressure (mmHg): -1.65
CCCCC(CC)C(C)C (configuration not stated),,163,
Cc1ccccc1N=Cc1ccccc1,,314,
CCCCCCCCCCCCCCCCCCCCO,66.1,372,log10 Koa: 12.1; log10 vapour pressure (mmHg): -7.34
Clc1cc(Cl)c(-c2ccccc2)cc1Cl,76.3,,log10 Henry constant (atm·m³/mol): -3.7; log10 Koa: 8; log10 vapour pressure (mmHg): -3.01; log10 BCF: 3.78; log10 biotransformation half-life (days): 1.84

SMILES,melting point [°C],boiling point [°C],also measured
ClC(c1ccccc1)c1ccccc1,16,,
N#Cc1ccc(Br)cc1,,236,
O=C1CCCCCCCCC1=O,40.5,,
ClC(C(Cl)(Cl)Cl)C(Cl)(Cl)Cl,11,249,
C[C@@H]1CCC[C@H]1O,,150,
Cc1cc(Br)cc([N+](=O)[O-])c1,83,270,
CC(C)NCC1CCc2cc(CO)c([N+](=O)[O-])cc2N1 (configuration not stated),148,,
Cc1ccc(N=C=S)cc1,25.5,237,
CCCOc1ccccc1OCC(O)CO (configuration not stated),70,,
Nc1ccc([N+](=O)[O-])cc1N,200,,
CC(Cl)C(C)Cl (configuration not stated),-80,118,log10 vapour pressure (mmHg): 1.39
O=C(O)CSCc1ccccc1,61,,
C1CC2CCC1C2,87.5,105,
COP(=O)(OC)Oc1ccc([N+](=O)[O-])c(C)c1,,,log10 BCF: 0.44; log10 biotransformation half-life (days): 0.01
C[C@]12CC[C@H](O)C[C@H]1CC[C@@H]1[C@@H]2CC[C@]2(C)[C@@H](C3=CC(=O)OC3)[C@@H](O)C[C@]12O,234,,
CN(C)c1ccccc1N,,218,
CCCCB(Cl)CCCC,,173,
O=C1C(O)=C(Cl)C(=O)C(O)=C1Cl,284,,
FC(F)(F)C(F)(F)C(F)(F)C(F)(F)N(C(F)(F)C(F)(F)C(F)(F)C(F)(F)F)C(F)(F)C(F)(F)C(F)(F)C(F)(F)F,-50,178,log10 vapour pressure (mmHg): -0.258; ready biodegradability: not readily biodegradable
CC(O)CCl (configuration not stated),,127,log10 vapour pressure (mmHg): 0.69
C=Cc1ccc(C(C)C)cc1,-44.7,204,
COc1ccccc1I,,241,
CCCCCCCCCCCCCCCC[N+](C)(C)C,,,ready biodegradability: not readily biodegradable
COc1ccc2c(OC)c3ccoc3nc2c1OC,177,,
NC(=O)N1c2ccccc2C=Cc2ccccc21,190,,

SMILES,melting point [°C],boiling point [°C],also measured
COC(=O)Nc1nc2ccccc2[nH]1,,,log10 Koc (L/kg): 2.35; log10 vapour pressure (mmHg): -9.12; ready biodegradability: not readily biodegradable; log10 BCF: 0.4
CC(=O)Nc1cccc([N+](=O)[O-])c1,155,,log10 Koc (L/kg): 1.94
CCOP(=S)(OCC)Oc1ccc2c(C)c(Cl)c(=O)oc2c1,93,,log10 vapour pressure (mmHg): -7.01
N#Cc1ncnc2nc[nH]c12,188,,
N#CCc1ccccc1Cl,24,251,
FCC(F)(F)F,-101,-26,log10 Henry constant (atm·m³/mol): -1.3; log10 vapour pressure (mmHg): 3.7
CN(C)C(=O)NC1CCCCCCC1,138,,
C[C@]12CC[C@@H]3c4ccc(O)cc4CC[C@H]3[C@@H]1C[C@@H](O)[C@@H]2O,282,,
CCN(CC)C(C)CN1c2ccccc2Sc2ccccc21 (configuration not stated),64.5,,
COCC(COC)OC,,148,
ICc1ccccc1,24.5,,log10 vapour pressure (mmHg): -0.903
ClC#CCl,-66,33,
CC[C@H](O)C(C)C,,126,
c1ccc(COCc2ccccc2)cc1,3.6,298,log10 vapour pressure (mmHg): -2.99; ready biodegradability: not readily biodegradable; log10 BCF: 2.43; log10 biotransformation half-life (days): 0.63
Nc1ccc(C(=O)O)cn1,312,,
CC(F)(F)C(Cl)(Cl)Cl,,73,
N#CSCCl,,185,
Clc1cc2c(Cl)c(Cl)c(Cl)c(Cl)c2cc1Cl,,,log10 Koa: 9.58; log10 vapour pressure (mmHg): -6.46
C=C1CC[C@H](O)C/C1=C/C=C1\CCC[C@]2(C)[C@@H]([C@H](C)/C=C/[C@H](C)C(C)C)CC[C@@H]12,116,,
C=CCC1CCCCC1,,132,
OCCCc1ccncc1,37,289,
CC(C)(c1ccc(O)cc1)c1ccc(O)cc1,153,,ready biodegradability: not readily biodegradable; log10 BCF: 1.64; log10 biotransformation half-life (days): 0.27
CC1CN(C2CCCCCCCCCCC2)CC(C)O1 (configuration not stated),71,,log10 vapour pressure (mmHg): -5.44
C=C(CCCC)CCCCCCCC,,,log10 biotransformation half-life (days): 0.88
CC(C)=C1CC[C@@H](C)CC1=O,,224,log10 vapour pressure (mmHg): -0.91
